From PubChem BioAssay (NCI) come the findings set out here.

Each structure is given as a SMILES string.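 These data come from cells grown in 96-well plates and exposed to compound for 48 hours at five concentrations. TGI marks complete inhibition of growth.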

Test systems include MALME-3M melanoma; NCI-H460 lung; K-562 leukemia; HCT-15 colon; A498 renal; SK-OV-3 ovarian; IGROV1 ovarian; MOLT-4 leukemia; OVCAR-3 ovarian; SK-MEL-28 melanoma.
Holding throughout (test): NCI anticancer screen, dose series, 48 h

`COc1ccc(C2(CC(C)O)SCCCS2)cc1` (stereo not given): the TGI with MALME-3M melanoma, in the test with NCI-H460 lung, in the test on K-562 leukemia, in the test on HCT-15 colon, with A498 renal and in the test with SK-OV-3 ovarian was greater than 100 µM throughout. In addition, the TGI in the test with IGROV1 ovarian, in the test with MOLT-4 leukemia, in the test with OVCAR-3 ovarian and with SK-MEL-28 melanoma was greater than 100 µM each time.

Turning to `Nc1c(-c2cccc3ccccc23)c2ccc([N+](=O)[O-])cc2c(=O)n1-c1nc2ccccc2s1`, the TGI was 13.4 µM in the test on MALME-3M melanoma; greater than 100 µM with NCI-H460 lung; greater than 100 µM in the test on K-562 leukemia; greater than 48 µM with HCT-15 colon; greater than 100 µM in the test with A498 renal; 14.8 µM in the test on SK-OV-3 ovarian. Further, the TGI in the test with IGROV1 ovarian is greater than 100 µM; in the test on MOLT-4 leukemia it was greater than 27.5 µM; in the test with OVCAR-3 ovarian it was greater than 37 µM; with SK-MEL-28 melanoma, greater than 100 µM.

As to `COC(=O)[C@]12CC[C@H]3CN(C(=O)OCc4ccccc4)[C@H]([C@H]31)[C@H](c1ccco1)N2S(=O)(=O)c1ccc(C)cc1`, the TGI is 38.3 µM with MALME-3M melanoma; 87.8 µM with NCI-H460 lung; greater than 100 µM in the test on K-562 leukemia; 30.8 µM with HCT-15 colon; 79.7 µM with A498 renal; greater than 100 µM in the test on SK-OV-3 ovarian. The TGI is 57.1 µM with IGROV1 ovarian, greater than 100 µM in the test on MOLT-4 leukemia, 40.4 µM with OVCAR-3 ovarian and greater than 100 µM with SK-MEL-28 melanoma.

With `COc1ccc2cc3c4cc5c(cc4cc[n+]3cc2c1OC)OCO5`, the TGI in the test with MALME-3M melanoma was 15.1 µM; with NCI-H460 lung it was greater than 100 µM; in the test on K-562 leukemia, greater than 100 µM; in the test on HCT-15 colon it was greater than 100 µM; with A498 renal, greater than 100 µM; with SK-OV-3 ovarian, greater than 84.9 µM. Besides, the TGI in the test on IGROV1 ovarian was greater than 32.7 µM; in the test with MOLT-4 leukemia, greater than 100 µM; with OVCAR-3 ovarian it was 21.4 µM; in the test with SK-MEL-28 melanoma, 19.4 µM.

Regarding `Cc1c(S(=O)(=O)/N=C(\N)Nc2ccc(Cl)cc2)sc2ccc(Cl)cc12`, the TGI in the test with MALME-3M melanoma was 39.8 µM; in the test on NCI-H460 lung it was 33.6 µM; with K-562 leukemia, greater than 100 µM; in the test on HCT-15 colon it was 44.6 µM; with A498 renal, 30.1 µM; in the test with SK-OV-3 ovarian it was 86.8 µM. The TGI in the test with IGROV1 ovarian was 31.9 µM; with MOLT-4 leukemia it was 78.1 µM; with OVCAR-3 ovarian it was 36.5 µM; with SK-MEL-28 melanoma it was 48.5 µM.

For `C(=N\NC1=NCCCN1)/c1ccc2ccccc2c1`, the TGI in the test with MALME-3M melanoma was found to be 33.2 µM; in the test with NCI-H460 lung it was 17.4 µM; in the test with K-562 leukemia, 12.6 µM; in the test on HCT-15 colon, 29.1 µM; with A498 renal it was 20.8 µM; in the test on SK-OV-3 ovarian, 23.6 µM. Further, the TGI with IGROV1 ovarian was 32.1 µM; with MOLT-4 leukemia, 5.02 µM; in the test on OVCAR-3 ovarian it was 32.2 µM; in the test with SK-MEL-28 melanoma it was 31.9 µM.

On to `CN(C)C(=S)S`, for which the TGI in the test on MALME-3M melanoma was greater than 90.2 µM; in the test on NCI-H460 lung, greater than 100 µM; in the test on K-562 leukemia it was greater than 100 µM; in the test on HCT-15 colon, greater than 100 µM; in the test with A498 renal, greater than 100 µM; with SK-OV-3 ovarian, greater than 100 µM. Further, the TGI is greater than 100 µM in the test with IGROV1 ovarian, greater than 100 µM in the test with MOLT-4 leukemia, 28.3 µM in the test on OVCAR-3 ovarian and greater than 100 µM in the test on SK-MEL-28 melanoma.

On to `C=CCNC(=S)/N=C/c1c(O)c2ccccc2oc1=O`, for which the TGI in the test on MALME-3M melanoma is 96 µM; in the test with NCI-H460 lung, greater than 100 µM; in the test with K-562 leukemia, greater than 100 µM; with HCT-15 colon, greater than 100 µM; in the test on A498 renal, greater than 100 µM; in the test with SK-OV-3 ovarian, greater than 100 µM. Also, the TGI in the test on IGROV1 ovarian, with MOLT-4 leukemia, in the test with OVCAR-3 ovarian and in the test on SK-MEL-28 melanoma was greater than 100 µM throughout.
